Measured values published in patent US10894784B2, “Heteroarylbenzimidazole compounds” (BAYER PHARMA AKTIENGESELLSCHAFT, priority 2015, dated 2021).

biological target: TBK1 (Homo sapiens (Human), UniProt Q9UHD2); experiment: TBK1 low ATP kinase assay (in vitro assay 1); format: biochemical; conditions: in vitro assay 1, read-out: TBK1 low ATP kinase assay IC50
Sequence (Q9UHD2 whole entry): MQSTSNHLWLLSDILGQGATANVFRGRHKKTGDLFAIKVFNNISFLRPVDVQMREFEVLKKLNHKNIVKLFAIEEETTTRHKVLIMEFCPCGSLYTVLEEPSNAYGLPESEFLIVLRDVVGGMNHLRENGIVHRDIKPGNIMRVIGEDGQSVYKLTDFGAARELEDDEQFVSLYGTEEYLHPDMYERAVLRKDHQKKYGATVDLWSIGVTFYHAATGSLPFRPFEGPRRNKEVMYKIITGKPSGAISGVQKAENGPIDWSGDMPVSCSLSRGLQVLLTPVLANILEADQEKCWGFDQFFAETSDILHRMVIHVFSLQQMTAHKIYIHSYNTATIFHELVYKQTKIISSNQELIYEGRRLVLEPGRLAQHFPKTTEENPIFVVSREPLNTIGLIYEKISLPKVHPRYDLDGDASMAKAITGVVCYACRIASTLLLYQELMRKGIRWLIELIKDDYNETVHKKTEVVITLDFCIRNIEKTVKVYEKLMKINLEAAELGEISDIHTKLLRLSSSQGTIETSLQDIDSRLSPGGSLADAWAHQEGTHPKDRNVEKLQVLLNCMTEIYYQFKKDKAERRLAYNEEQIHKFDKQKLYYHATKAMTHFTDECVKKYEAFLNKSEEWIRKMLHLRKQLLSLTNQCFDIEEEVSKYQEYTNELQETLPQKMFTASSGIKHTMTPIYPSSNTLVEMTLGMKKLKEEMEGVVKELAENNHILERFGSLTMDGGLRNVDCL

| SMILES | IC50 [nM] |
| --- | --- |
| COc1c(-c2ccc3nc(Nc4cc(C(C)N5CCN(C(=O)CC(F)(F)F)CC5)ccn4)[nH]c3c2)ncnc1N1CC(F)(F)C1 (single isomer, unassigned) [Example 113.02, 1-(4-{(1R or 1S)-1-[2-({6-[6-(3,3-difluoroazetidin-1-yl)-5-methoxypyrimidin-4-yl]-1H-benzimidazol-2-yl}amino)pyridin-4-yl]ethyl}piperazin-1-yl)-3,3,3-trifluoropropan-1-one] | 1.6 |
| O=C(C1CC1)N1CCN(Cc2ccnc(Nc3nc4ccc(-c5cnc(C6CC6)nc5)cc4[nH]3)c2)CC1 [Example 45.04.01, cyclopropyl{4-[(2-{[6-(2-cyclopropylpyrimidin-5-yl)-1H-benzimidazol-2-yl]amino}pyridin-4-yl)methyl]piperazin-1-yl}methanone] | 2240 |
| CCOc1c(-c2cnn(CC)c2)ccc2nc(Nc3cc(CN4CCN(C(=O)CC(F)(F)F)CC4)ccn3)[nH]c12 [Example 53.01, 1-{4-[(2-{[7-ethoxy-6-(1-ethyl-1H-pyrazol-4-yl)-1H-benzimidazol-2-yl]amino}pyridin-4-yl)methyl]piperazin-1-yl}-3,3,3-trifluoropropan-1-one] | 132 |
| CC(C)(C)OC(=O)N1CCN(Cc2ccnc(Nc3nc4ccc(-c5ccnc(N)c5)cc4[nH]3)c2)CC1 [Example 138.01, tert-butyl 4-[(2-{[6-(2-aminopyridin-4-yl)-1H-benzimidazol-2-yl]amino}pyridin-4-yl)methyl]piperazine-1-carboxylate] | 5.8 |
| COc1cncnc1-c1ccc2nc(Nc3cc(C(C)N4CCN(C(=O)C5CCC5)CC4)ccn3)[nH]c2c1 (single isomer, unassigned) [Example 35.03.04.B, cyclobutyl{4-[(1R or 1S)-1-(2-{[6-(5-methoxypyrimidin-4-yl)-1H-benzimidazol-2-yl]amino}pyridin-4-yl)ethyl]piperazin-1-yl}methanone] | 34.5 |
| CC(c1ccnc(Nc2nc3ccc(-c4cnn(CC5CCC5)c4)c(F)c3[nH]2)c1)N1CCN(C(=O)CC(F)(F)F)CC1 (single isomer, unassigned) [Example 171.02, 1-(4-{(1R or 1S)-1-[2-({6-[1-(cyclobutylmethyl)-1H-pyrazol-4-yl]-7-fluoro-1H-benzimidazol-2-yl}amino)pyridin-4-yl]ethyl}piperazin-1-yl)-3,3,3-trifluoropropan-1-one] | 5.95 |
| COc1cc(-c2ccc3nc(Nc4cc(CN5CCN(C(=O)C6CC6)CC5)ccn4)[nH]c3c2)ncn1 [Example 163.03, cyclopropyl{4-[(2-{[6-(6-methoxypyrimidin-4-yl)-1H-benzimidazol-2-yl]amino}pyridin-4-yl)methyl]piperazin-1-yl}methanone] | 18 |
| Cc1cc(-c2ccc3nc(Nc4cc(C(C)N5CCN(C(=O)C6CC6)CC5)ccn4)[nH]c3c2)n(C)n1 (single isomer, unassigned) [Example 89.03, cyclopropyl{4-[(1R or 1S)-1-(2-{[6-(1,3-dimethyl-1H-pyrazol-5-yl)-1H-benzimidazol-2-yl]amino}pyridin-4-yl)ethyl]piperazin-1-yl}methanone] | 320 |
| O=C(CC1CC1)N1CCN(Cc2ccnc(Nc3nc4ccc(-c5cncnc5)cc4[nH]3)c2)CC1 [Example 45.01.02, 2-cyclopropyl-1-{4-[(2-{[6-(pyrimidin-5-yl)-1H-benzimidazol-2-yl]amino}pyridin-4-yl)methyl]piperazin-1-yl}ethanone] | 397 |
| COc1c(C)ncnc1-c1ccc2nc(Nc3cc(C(C)N4CCN(C(=O)C5CC5)CC4)ccn3)[nH]c2c1 (single isomer, unassigned) [Example 83.04, cyclopropyl{4-[(1R or 1S)-1-(2-{[6-(5-methoxy-6-methylpyrimidin-4-yl)-1H-benzimidazol-2-yl]amino}pyridin-4-yl)ethyl]piperazin-1-yl}methanone] | 1.5 |
| CC(C)Oc1cnccc1-c1ccc2nc(Nc3cc(CN4CCN(C(=O)CC5CC5)CC4)ccn3)[nH]c2c1 [Example 06.03, 2-cyclopropyl-1-(4-{[2-({6-[3-(propan-2-yloxy)pyridin-4-yl]-1H-benzimidazol-2-yl}amino)pyridin-4-yl]methyl}piperazin-1-yl)ethanone] | 8.26 |
| O=C(C1CCC1)N1CCN(Cc2ccnc(Nc3nc4ccc(-c5ccn(CC6CC6)c(=O)c5)cc4[nH]3)c2)CC1 [Example 44.03, 4-{2-[(4-{[4-(cyclobutylcarbonyl)piperazin-1-yl]methyl}pyridin-2-yl)amino]-1H-benzimidazol-6-yl}-1-(cyclopropylmethyl)pyridin-2(1H)-one] | 85.8 |
| O=C(CC(F)(F)F)N1CCN(Cc2ccnc(Nc3nc4ccc(-c5cc(N6CCOCC6)ncn5)cc4[nH]3)c2)CC1 [Example 94.01, 3,3,3-trifluoro-1-(4-{[2-({6-[6-(morpholin-4-yl)pyrimidin-4-yl]-1H-benzimidazol-2-yl}amino)pyridin-4-yl]methyl}piperazin-1-yl)propan-1-one] | 7.2 |
| COCC1CCN(S(=O)(=O)N2CCN(Cc3ccnc(Nc4nc5ccc(-c6ncncc6OC)cc5[nH]4)c3)CC2)CC1 [Example 35.01.16, N-{4-[(4-{[4-(methoxymethyl)piperidin-1-yl]sulfonyl}piperazin-1-yl)methyl]pyridin-2-yl}-6-(5-methoxypyrimidin-4-yl)-1H-benzimidazol-2-amine] | 45.9 |
| CCC(=O)N1CCN(Cc2ccnc(Nc3nc4ccc(-c5nc(C)no5)cc4[nH]3)c2)CC1 [Example 101.28, 1-{4-[(2-{[6-(3-methyl-1,2,4-oxadiazol-5-yl)-1H-benzimidazol-2-yl]amino}pyridin-4-yl)methyl]piperazin-1-yl}propan-1-one] | 210 |
| CSc1ncc(-c2ccc3nc(Nc4cc(CN5CCN(C(=O)CC(F)(F)F)CC5)ccn4)[nH]c3c2)cn1 [Example 45.05.01, 3,3,3-trifluoro-1-(4-{[2-({6-[2-(methylsulfanyl)pyrimidin-5-yl]-1H-benzimidazol-2-yl}amino)pyridin-4-yl]methyl}piperazin-1-yl)propan-1-one] | 1430 |
| C=CCC(=O)N1CCN(Cc2ccnc(Nc3nc4ccc(-c5nc(C6CC6)no5)cc4[nH]3)c2)CC1 [Example 17.04, 1-{4-[(2-{[6-(3-cyclopropyl-1,2,4-oxadiazol-5-yl)-1H-benzimidazol-2-yl]amino}pyridin-4-yl)methyl]piperazin-1-yl}but-3-en-1-one] | 102 |
| CC(c1ccnc(Nc2nc3ccc(-c4ccncn4)cc3[nH]2)c1)N1CCN(C(=O)CC(F)(F)F)CC1 (racemic) [Example 23.04.03, (rac)-3,3,3-trifluoro-1-{4-[1-(2-{[6-(pyrimidin-4-yl)-1H-benzimidazol-2-yl]amino}pyridin-4-yl)ethyl]piperazin-1-yl}propan-1-one] | 2.47 |
| Cc1ncc(C)c(-c2ccc3nc(Nc4cc(CN5CCN(C(=O)C6CCC6)CC5)ccn4)[nH]c3c2)n1 [Example 33.04, cyclobutyl{4-[(2-{[6-(2,5-dimethylpyrimidin-4-yl)-1H-benzimidazol-2-yl]amino}pyridin-4-yl)methyl]piperazin-1-yl}methanone] | 2120 |
| Cc1noc(-c2ccc3nc(Nc4cc(CN5CCN(C(=O)CC6CC6)C[C@H]5C)ccn4)[nH]c3c2)n1 [Example 16.03.03, 2-cyclopropyl-1-{(3R)-3-methyl-4-[(2-{[6-(3-methyl-1,2,4-oxadiazol-5-yl)-1H-benzimidazol-2-yl]amino}pyridin-4-yl)methyl]piperazin-1-yl}ethanone] | 67 |
| Cc1ncc(-c2ccc3nc(Nc4cc(CN5CCN(C(=O)C6CC6)CC5)ccn4)[nH]c3c2)cn1 [Example 45.03.02, cyclopropyl{4-[(2-{[6-(2-methylpyrimidin-5-yl)-1H-benzimidazol-2-yl]amino}pyridin-4-yl)methyl]piperazin-1-yl}methanone] | 1330 |
| CCOc1c(-c2cnn(CC)c2)ccc2nc(Nc3cc(CN4CCN(C(=O)C5CC5)CC4)ccn3)[nH]c12 [Example 53.02, cyclopropyl{4-[(2-{[7-ethoxy-6-(1-ethyl-1H-pyrazol-4-yl)-1H-benzimidazol-2-yl]amino}pyridin-4-yl)methyl]piperazin-1-yl}methanone] | 121 |
| Cc1cc(-c2ccc3nc(Nc4cc(CN5CCN(C(=O)C6CC6)CC5)ccn4)[nH]c3c2)ccn1 [Example 01.02, cyclopropyl{4-[(2-{[6-(2-methylpyridin-4-yl)-1H-benzimidazol-2-yl]amino}pyridin-4-yl)methyl]piperazin-1-yl}methanone] | 42 |
| Cc1cc(CN2CCN(C(=O)CC(F)(F)F)CC2)cc(Nc2nc3ccc(-c4ccnc(C)n4)cc3[nH]2)n1 [Example 24.02.02, 3,3,3-trifluoro-1-{4-[(2-methyl-6-{[6-(2-methylpyrimidin-4-yl)-1H-benzimidazol-2-yl]amino}pyridin-4-yl)methyl]piperazin-1-yl}propan-1-one] | 63.1 |
| Cc1cccc(N2CCN(Cc3ccnc(Nc4nc5ccc(-c6nc(C)no6)cc5[nH]4)c3)CC2)n1 [Example 101.19, 6-(3-methyl-1,2,4-oxadiazol-5-yl)-N-(4-{[4-(6-methylpyridin-2-yl)piperazin-1-yl]methyl}pyridin-2-yl)-1H-benzimidazol-2-amine] | 340 |
| Cc1cc(-c2ccc3nc(Nc4cc(CN5CCN(C(=O)CC(F)(F)F)CC5)ccn4)[nH]c3c2)cc(C#N)n1 [Example 136.02, 6-methyl-4-{2-[(4-{[4-(3,3,3-trifluoropropanoyl)piperazin-1-yl]methyl}pyridin-2-yl)amino]-1H-benzimidazol-6-yl}pyridine-2-carbonitrile] | 38 |
| CC(C)(C)OC(=O)N1CCN(Cc2ccnc(Nc3nc4ccc(-c5ccnc(N6CCOCC6)c5)cc4[nH]3)c2)CC1 [Example 134.01, tert-butyl 4-{[2-({6-[2-(morpholin-4-yl)pyridin-4-yl]-1H-benzimidazol-2-yl}amino)pyridin-4-yl]methyl}piperazine-1-carboxylate] | 57 |
| CCOc1nccc(-c2ccc3nc(Nc4cc(C(C)N5CCN(C(=O)CC(F)(F)F)CC5)ccn4)[nH]c3c2)n1 (racemic) [Example 26.02.01, (rac)-1-{4-[1-(2-{[6-(2-ethoxypyrimidin-4-yl)-1H-benzimidazol-2-yl]amino}pyridin-4-yl)ethyl]piperazin-1-yl}-3,3,3-trifluoropropan-1-one] | 4.68 |
